Source: patent US12054451B1, “Water soluble platinum (II) amino acid schiff base as an antitumor drug” (KING FAISAL UNIVERSITY, priority 2024, dated 2024)

System: HepG-2 (Hepatocellular carcinoma)
Experiment: SRB (sulforhodamine-B-stain) anticancer assay, HepG-2
Assay type: cell-based
Details: Homo sapiens, HepG2, HepG-2 cells, 48 hours at 37° C., absorbance 564 nm
Protocol: Investigation for the bio-reactivity of PtL, as an antitumor candidate, was achieved versus well documented human cancer cell lines, as three cancers entitled HepG2, MCF-7, and HCT-116, using the simplest tool SRB (sulforhodamine-B-stain). In particular, the most popular anticancer referenced drug (vinblastine) was used in the anticancer assay (the inhibited action of the cancer cells) to compare its bio-reactivity versus that one of PtL. The antitumor reactivity of PtL was evaluated by IC50 concentrations (half effected concentration in μM) for inhibiting the growth of the tumor and normal cell lines of human in which IC50 concentrations were obtained from Eq. 1, below.
With HepG-2 (Hepatocellular carcinoma), HCT-116 (colon carcinoma), and MCF7 (breast adenocarcinoma), as human cancer cell lines, the antitumor potential of PtL was studied against their growth by applying a spectrometric tool. Using SRB (sulforhodamine-B-stain) was essential in the spectrometric studies at a specific wavelength (564 nm, the optimized absorption wavelength). Recording the corresponded absorbance (A) at 564 nm was accomplished using a UV/Vis. spectrophotometer, UV-1800 mode Shimadzu with a mono-cell holder. […]

CC[C@]1(O)C[C@@H]2CN(CCc3c([nH]c4ccccc34)[C@@](C(=O)OC)(c3cc4c(cc3OC)N(C)[C@H]3[C@@](O)(C(=O)OC)[C@H](OC(C)=O)[C@]5(CC)C=CCN6CC[C@]43[C@@H]65)C2)C1 [Vinblastine, vinblastine]
IC50: 7.5 ± 0.1 µM
